Reference: ChEMBL document CHEMBL1144092, “5-Oxonoraporphines from Mitrephora cf. maingayi” (1999)
Values after ≈ are worked out from the molar mass of the structure shown. Active and inactive are the calls of the source. The calls are words filed in the database; no cut-off is given here.

Legend:
Aedes aegypti = assay: Larvicidal activity against Aedes aegypti larvae; format: functional
P388 = assay: Cytotoxicity against mouse P388 cells; format: functional; conditions: P388, read-out: ED50

SMILES	LC50 (Aedes aegypti) [µg/mL]	Activity (Aedes aegypti)	EC50 (P388) [µg/mL]
COc1c(OC)c(OC)c2c3c(cc4ccccc42)NC(=O)C(=O)c13 [OUREGIDIONE]	10000 (≈ 29.6 mM)	–	–
COc1c2c3c(c(OC)c1OC)-c1ccccc1C[C@H]3NC(=O)C2	–	inactive	> 30
COc1c(O)c2c3c(c1OC)-c1ccccc1C[C@H]3NC(=O)C2	–	inactive	> 30
